Experimental data: patent US9464326B2, “Total and phosphorylated IL-1 receptor-associated kinase-1 and IL-1 receptor-associated kinase-4 as a biomarker for cancer progression and chemotherapy resistance” (University of Maryland, Baltimore, priority 2012, dated 2016)

Legend:
Assay type in all cases: cell-based, human
[1] = test system: Hut-78; experiment: Proliferation (3H-thymidine) of Hut-78; conditions: 3H-thymidine uptake, 72 h
Description: (§1) CCRF-CEM, CEM/C1, CEM/C2, CEM-C7, Jurkat, Loucy, Molt-4, HSB-2, SUP-T1, Hut 78, HH, Hut 102, MO, and H9 T-leukemia and T-lymphoma cell lines were purchased from the American Type Culture Collection (Manassas, Va., USA). All of the cell lines were initially expanded and cryopreserved within one month of receipt. Cells were typically used for 6 months at which time a fresh vial of cryopreserved cells was used. Total T cells from healthy donors were isolated via negative selection followed by positive selection using a CD3+ selection kit (Invitrogen, Carlsbad, Calif.). T cells were isolated from patients with T-ALL bone marrow or peripheral blood samples containing more than 70% leukemia cells using a CD2+ isolation kit (STEMCELL Technologies, Vancouver, Canada). All tissues were collected under institutional IRB-approved protocols and all participants gave written informed assent/consent. For in vitro experiments, T-ALL cells were cultured in AIM-V medium supplemented with 20% human AB serum in the presence of recombinant human stem cell factor (50 ng/mL; Amgen, Thousand Oaks, Calif.), insulin (20 nM; Sigma-Aldrich, St Louis, Mo., USA) and IL-7 (50 ng/mL; R&D Systems, Minneapolis, Minn., USA). […]
(§2) Cells were cultured in a 96-well plate (Corning Costar, Corning, N.Y., USA) with various concentrations of TLR ligands 1-9, starting at 10 μg/ml, in a final volume of 200 ul. […] After this time point, cells were harvested with a Packard Filter-Mate-96 cell harvester (Perkin Elmer, Waltham, Mass., USA) and counted on Packard Top Count-NXT (Perkin Elmer, Waltham, Mass., USA). Results were expressed as average counts per minute (cpm). […] Forty-eight hours later, proliferation (±SD) was determined by ^3H-thymidine incorporation. Alternatively, apoptosis was measured by flow cytometry after staining cells with Annexin-V (BD Pharmingen, San Diego, Calif., USA) and propidium iodide (Sigma). Cell number was counted under microscopy by staining cells with trypan blue. […]

[2] = test system: C32 melanoma cells; experiment: Vinblastine-induced apoptosis in C32 (flow cytometry); conditions: vinblastine 100 nM with TLR1-TLR2 ligand 2.5 μg/ml, 48 hours, FIG. 20B
Experimental: FIG. 20. Role of TLR-induced cytokines and NF-kB on cell survival. (A) A375 melanoma cells were cultured in a 48-well plates in the presence or absence of NF-kB inhibitor NF-kB inhibitor SN50 (100 nM; Anaspec) with or without vinblastine (100 nM) or Doxorubicin (0.25 μg/ml). The percentage of apoptotic cells was measured by staining cells with Annexin and PI 48 hours later and analyzed by flow cytometry. (B) C32 melanoma cells were cultured in the presence of vinblastine (100 nM) and in the […] of TLR1-TLR2 ligand (2.5 μg/ml) or the presence of supernatant from TLR1-TLR2-stimulated A375 cells. After 48 hours, apoptosis was measured by flow cytometry. (C) A375 melanoma cells were cultured in the presence or absence of vinblastine (100 nM) and IL-1 (50 ng/ml; BioLegend), IL-18 (100 ng/ml; Medical and Biological Lab) or CXCL1 (50 ng/ml; R&D Systems). Apoptosis was measured 48 hours later by flow cytometry.
Alternatively, cytokines/chemokines produced in response to TLR-IRAK signaling might also contribute to the chemoprotective effects. Supernatant from TLR-1-TLR-2 stimulated or unstimulated A375 melanoma cells was added to the C32 melanoma cells in the presence or absence of vinblastine. Another group of cells were treated with TLR1-TLR2 ligand and apoptosis was examined by flow cytometry. […]

[3] = test system: Primary T-cells Activated; experiment: Proliferation (3H-thymidine) of activated primary T-cells
Description: CCRF-CEM, CEM/C1, CEM/C2, CEM-C7, Jurkat, Loucy, Molt-4, HSB-2, SUP-T1, Hut 78, HH, Hut 102, MO, and H9 T-leukemia and T-lymphoma cell lines were purchased from the American Type Culture Collection (Manassas, Va., USA). All of the cell lines were initially expanded and cryopreserved within one month of receipt. Cells were typically used for 6 months at which time a fresh vial of cryopreserved cells was used. Total T cells from healthy donors were isolated via negative selection followed by positive selection using a CD3+ selection kit (Invitrogen, Carlsbad, Calif.). T cells were isolated from patients with T-ALL bone marrow or peripheral blood samples containing more than 70% leukemia cells using a CD2+ isolation kit (STEMCELL Technologies, Vancouver, Canada). All tissues were collected under institutional IRB-approved protocols and all participants gave written informed assent/consent. For in vitro experiments, T-ALL cells were cultured in AIM-V medium supplemented with 20% human AB serum in the presence of recombinant human stem cell factor (50 ng/mL; Amgen, Thousand Oaks, Calif.), insulin (20 nM; Sigma-Aldrich, St Louis, Mo., USA) and IL-7 (50 ng/mL; R&D Systems, Minneapolis, Minn., USA). In other experiments, protein lysate was collected using the Full Moon Biosystems (Sunnyvale, Calif., USA) buffer prior to protein examination by western blot or protein array.
(§3) Cells were cultured in a 96-well plate (Corning Costar, Corning, N.Y., USA) with various concentrations of TLR ligands 1-9, starting at 10 μg/ml, in a final volume of 200 ul. TLR ligands were diluted 2-fold. Cell lines (25-40×10^3/well) were cultured for 54 hours, whereas fresh patient-derived T-ALL cells (200×10^3/well) were cultured for 30 hours prior to adding [^3H]-thymidine for 18 hours. After this time point, cells were harvested with a Packard Filter-Mate-96 cell harvester (Perkin Elmer, Waltham, Mass., USA) and counted on Packard Top Count-NXT (Perkin Elmer, Waltham, Mass., USA). Results were expressed as average counts per minute (cpm). In some experiments CCRF-CEM cells were pre-treated with TLR1-TLR2 ligand (Pam3CysK4; 2.5 ug/ml) for 48 hrs, washed, and then cultured in the presence of varying concentrations of FBS. Forty-eight hours later, proliferation (±SD) was determined by ^3H-thymidine incorporation. Alternatively, apoptosis was measured by flow cytometry after staining cells with Annexin-V (BD Pharmingen, San Diego, Calif., USA) and propidium iodide (Sigma). Cell number was counted under microscopy by staining cells with trypan blue.
The following TLR ligands were purchased from Invivogen (San Diego, Calif., USA): tripalmitoyl-S-(bis(palmitoyloxy)propyl)-Cys-Ser-(Lys)3-Lys (TLR1-2); Poly I:C (TLR3); ultrapure S. Minnesota Lipopolysaccharide (TLR4); S. typhimurium flagellin (TLR5); FSL-1 (TLR2/6); Imiquimod (TLR7); ssRNA40/Lyovec (TLR8); CpG-ODN 2006 (TLR9).

[4] = test system: Primary T-cells Non-Act; experiment: Proliferation (3H-thymidine) of non-activated primary T-cells; conditions: 3H-thymidine uptake, 72 h
Description: as §1, §2

[5] = test system: CCRF-CEM cells; experiment: Cell number and apoptosis assays; conditions: 5 uM, 24-96 hours
Experimental: as §3, with “TLR” for “Cells were cultured in a 96-well plate (Corning Costar, Corning, N.Y., USA) with various concentrations of TLR ligands 1-9, starting at 10 μg/ml, in a final volume of 200 ul. TLR”
CCRF-CEM cells were treated with IRAK-1,-4 inhibitor for 24, 48, 72, and 96 hours.
The T-ALL cell line CCRF-CEM was cultured in the presence of 0, 1.2, 5, 10, and 20 μM IRAK-1,-4 inhibitor. (FIG. 23). To each concentration of IRAK-1,-4 inhibitor titrating doses of ABT-737 (1000→15 nM) vincristine, VS (10→0.1 nM), and paclitaxol, PAC (100→1.5 nM). […] Apoptosis was measure 48 hours later by staining cells with 7AAD and analyzed by flow cytometry.

Molecule | Proliferative effects of TLR ligands [1] | vinblastine-induced apoptosis [2] | Proliferative effects of TLR ligands ([3]; Primary T-cells, Activated, 3H-thymidine uptake, 72 h) | TLR ligand concentration in parentheses below the symbol ([3]; Primary T-cells, Activated, no unit in table (μg/ml)) | effect on proliferation / T-cell expansion (in words) ([3]; T cells from healthy donors, together with T cell receptor stimulation, FIG. 1A) | Proliferative effects of TLR ligands [4] | number of viable cells ([5]; FIG. 14B) | apoptosis (sub-G1 phase, Annexin V) ([5]; FIG. 14D)
tripalmitoyl-S-(bis(palmitoyloxy)propyl)-Cys-Ser-(Lys)3-Lys [Pam3Cysk4] | ∘ | little effect | + (enhanced proliferation by 25% or greater) | (10) | enhanced proliferation | ∘ |  | 
O=C(Nc1nc2ccccc2n1CCN1CCOCC1)c1cccc([N+](=O)[O-])c1 [IRAK-1,-4 inhibitor] |  |  |  |  |  |  | maintained a relatively constant number of viable cells | did not induce apoptosis
